Laboratory results published in patent US5250543A, “Derivatives of 1,4-dihydropyridine, their preparation procedure and therapeutic compositions containing them” (priority 1991, dated 1993).
Counter-ions that a name gives are not always drawn.

How the values were obtained:
[1] = Solubility in water (noted in preparation); format: physicochemical; settings: isolated powder, in words
[2] = system: conscious Wistar rats suffering from genetic hypertension; assay: Effects on mean arterial pressure and heartbeat frequency in conscious rats suffering from genetic hypertension; format: in vivo, rat (Wistar); settings: oral, 16 mg/kg; for Heartbeat frequency / tachycardiac effect (in words): early effect (nicardipine after five minutes)
Method: The effects were tested using conscious Wistar rats suffering from genetic hypertension (6 rats per compound). The compounds were administered orally as a 16 mg/kg (under 5.3 ml/kg) dose in suspension.

[3] = Acute toxicity (intraperitoneal) in rats; settings: rat, in vivo, ip, Sprague-Dawley rats, Example 1 given as 20 mg/ml aqueous suspension, nicardipine under the same conditions
Method: The acute toxicity of the compound of example 1 was determined on rats injected intraperitoneally (Sprague-Dawley rats) and the product was administered as a 20 mg/ml aqueous suspension.

DHP membranous site = assay: Receptor binding at DHP membranous site with 3H-radiolabelled ligand isradipine; settings: same value used as dose in aorta test, read-out: IC50 at the receptors
Method: (§1) For this purpose, the IC50 values were at first determined at the receptors (on the DHP membranous site with ^3 H-radiolabelled ligand isradipine and with these doses the percentage of inhibition in the contraction of the isolated aorta was determined.

rat's isolated aorta = assay: Calcium blocking activity in vitro: KCl contraction of the rat's isolated aorta; format: cell-based
Method: The calcium blocking activity was determined in vitro by using the method of contracting the rat's isolated aorta with KCI (see Bernard Swynghedauw--Animal Experiments in Cardiology, Collection INSERM Medicine Sciences, Flammarion).
as §1

[4] = system: histamine hyperpermeability in Sprague-Dawley rats; assay: Effect on histamine hyperpermeability (Evan's Blue intradermal extravasation); format: in vivo, rat (Sprague-Dawley)
Method: The effect of CRL 41695 administered intraperitoneally on hystamine hyperpermeability was tested on Sprague-Dawley rats.
The parameter tested was the effect on Evan's Blue intradermal extravasation induced by histamine injection.
24 hours after shaving and epilation of the rat's flanks, CRL 41695 was injected intraperitoneally at dose levels of 10 mg/kg (dispersed in 0.9% NaCl +5% carboxymethylcellulose) and 10 minutes later 0.25 ml/100 g of Evan's Blue at 2% injected intravenously.
0.1 ml of 0.9% NaCl was then injected intradermally in the left flank and 0.01 ml of histamine ([…]) in the right flank.
The rats were sacrificed after 40 minutes and the injection sites removed. The Evan's Blue was extracted from the skin with 65% formamide and the solvent was removed by filtration. The optical density was determined as 620 nm.

For `COC(=O)C1=C(C)NC(C)=C(C(=O)OC2CCCN(CCCC(=O)c3c(OC)cc(OC)cc3OC)C2)C1c1cccc([N+](=O)[O-])c1` (centres unmarked) [Example 11, 2,6-dimethyl-4-(3-nitrophenyl)-5-methoxycarbonyl-1,4-dihydropyridine-3-carboxylic acid N-[3-(2,4,6-trimethoxybenzoyl)propyl]piperidine-3'-yl ester, glutamate], the Solubility in water [1] was “water-insoluble”.

For `COC(=O)C1=C(C)NC(C)=C(C(=O)OCCN(C)Cc2ccccc2)C1c1cccc([N+](=O)[O-])c1` (centres unmarked) [nicardipine, reference compound], the “Time of maximum secondary tachycardiac effect” value [2] was 5 h, the “Heartbeat frequency, variation after 5 mins” value [2] was “+32%” and the “Arterial pressure, variation after 3 hrs” value [2] was -39%. The “Heartbeat frequency, variation after 5 hrs” value [2] was “+23%”, the “Arterial pressure, variation after 7 hrs” value [2] was -27% and the “Heartbeat frequency / tachycardiac effect (in words)” value [2] was “clear tachycardiac effect after five minutes”. For the same compound, the “Secondary tachycardiac effect (in words)” value [2] was “secondary tachycardiae effect was also observed” and the LD50 [3] was 233 ± 65 mg/kg.

In the case of `COC(=O)C1=C(C)NC(C)=C(C(=O)OC2CCCN(CCCC(=O)c3c(OC)cc(OC)cc3OC)C2)C1c1cccc([N+](=O)[O-])c1` (centres unmarked) [Example 12, 2,6-dimethyl-4-(3-nitrophenyl)-5-methoxycarbonyl-1,4-dihydropyridine-3-carboxylic acid N-[3-(2,4,6-trimethoxybenzoyl)propyl]piperidine-3'-yl ester, aspartate], the Solubility in water [1] is reported as “water-insoluble”.

In the case of `COC(=O)C1=C(C)NC(C)=C(C(=O)O[C@@H]2CCCN(CCCC(=O)c3c(OC)cc(OC)cc3OC)C2)[C@H]1c1cccc([N+](=O)[O-])c1` (single isomer, unassigned) [Example 9, hydrochloride], the IC50 (DHP membranous site) is reported as 0.6 nM, the Solubility in water [1] is reported as “water-insoluble” and the inhibition at 0.0006 µM (rat's isolated aorta; dose 6 × 10^-10 M (= receptor IC50)) is reported as 60%.

With `COC(=O)C1=C(C)NC(C)=C(C(=O)O[C@H]2CCCN(CCCC(=O)c3c(OC)cc(OC)cc3OC)C2)[C@H]1c1cccc([N+](=O)[O-])c1` [Example 4, (+)(4S, 3'S) 2,6-dimethyl-4-(3-nitrophenyl)-5-methoxycarbonyl-1,4-dihydropyridine-3-carboxylic acid N-[3-(2,4,6-trimethoxybenzoyl)propyl]piperidine-3'-yl ester] the IC50 (DHP membranous site) was 3 nM, the Solubility in water [1] was “water-insoluble” and the inhibition at 0.003 µM (rat's isolated aorta; dose 3 × 10^-9 M (= receptor IC50)) was 70%.

For `COC(=O)C1=C(C)NC(C)=C(C(=O)OCC2CCCN2CCCC(=O)c2c(OC)cc(OC)cc2OC)C1c1cccc([N+](=O)[O-])c1` (centres unmarked) [Example 3, 2,6-dimethyl-4-(3-nitrophenyl-5-methoxycarbonyl-1,4-dihydropyridine-3-carboxylic acid N-[3-(2,4,6-trimethoxybenzoyl)propyl]pyrrolidylmethyl ester, hydrochloride], the Solubility in water [1] was “water-insoluble”.

In the case of `COC(=O)C1=C(C)NC(C)=C(C(=O)O[C@@H]2CCCN(CCCC(=O)c3c(OC)cc(OC)cc3OC)C2)[C@@H]1c1cccc([N+](=O)[O-])c1` [Example 5, (-)(4R, 3'R) 2,6-dimethyl-4-(3-nitrophenyl)-5-methoxycarbonyl-1,4-dihydropyridine-3-carboxylic acid N-[3-(2,4,6-trimethoxybenzoyl)propyl]piperidine-3-yl ester], the Solubility in water [1] is reported as “water-insoluble”.

For `COC(=O)C1=C(C)NC(C)=C(C(=O)OC2CCCN(CCCC(=O)c3c(OC)cc(OC)cc3OC)C2)C1c1cccc([N+](=O)[O-])c1` (centres unmarked) [Example 10, 2,6-dimethyl-4-(3-nitrophenyl)-5-methoxycarbonyl-1,4-dihydropyridine-3-carboxylic acid N-[3-(2,4,6-trimethoxybenzoyl)propyl]piperidine-3'-yl, lactate], the Solubility in water [1] was “soluble in cold water but is precipitated on warming”.

For `COC(=O)C1=C(C)NC(C)=C(C(=O)OC2CCCN(CCCC(=O)c3c(OC)cc(OC)cc3OC)C2)C1c1cccc([N+](=O)[O-])c1` (centres unmarked) [Example 2, 2,6-dimethyl-4-(-3-nitrophenyl)-5-methoxycarbonyl-1,4-dihydropyridine-3-carboxylic acid N-[3-(2,4,6,trimethoxybenzoyl)propyl]piperidine-3-yl ester], the IC50 (DHP membranous site) was 10 nM, the Solubility in water [1] was “soluble in water in the presence of acetic acid” and the inhibition at 0.01 µM (rat's isolated aorta; dose 10^-8 M (= receptor IC50)) was 60%.

With `COC(=O)C1=C(C)NC(C)=C(C(=O)O[C@@H]2CCCN(CCCC(=O)c3c(OC)cc(OC)cc3OC)C2)[C@H]1c1cccc([N+](=O)[O-])c1` [Example 7, (-)(4S, 3'R) 2,6-dimethyl-4-(3-nitrophenyl)-5-methoxycarbonyl-1,4-dihydropyridine-3-carboxylic acid N-[3-(2,4,6-trimethoxybenzoyl)propyl]piperidine-3'-yl ester] the IC50 (DHP membranous site) was 2 nM, the Solubility in water [1] was “water-insoluble” and the inhibition at 0.002 µM (rat's isolated aorta; dose 2 × 10^-9 M (= receptor IC50)) was 80%.

With `COC(=O)C1=C(C)NC(C)=C(C(=O)OC2CCCN(CCCC(=O)c3c(OC)cc(OC)cc3OC)C2)C1c1cccc([N+](=O)[O-])c1` (centres unmarked) [Example 1, 2,6-dimethyl-4-(3-nitro-phenyl)-5-methoxycarbonyl-1,4-dihydropyridine-3-carboxylic acid N-[3-(2,4,6-trimethoxybenzoyl)propyl]piperidine-3'-yl ester, hydrochloride] the “Duration of significant hypotension” value [2] was “at least 7 hours”, the “Heartbeat frequency, variation after 5 mins” value [2] was “+13%” and the “Arterial pressure, variation after 3 hrs” value [2] was -50%. For the same compound, the “Heartbeat frequency, variation after 5 hrs” value [2] was 0%, the “Arterial pressure, variation after 7 hrs” value [2] was -42% and the “Hypotension (in words)” value ([2]; during at least 7 hours) was “significantly raised”. The “Heartbeat frequency / tachycardiac effect (in words)” value [2] was “only slightly increased”, the “Secondary tachycardiac effect (in words)” value [2] was “not found” and the LD50 [3] was 249 ± 50 mg/kg. The Solubility in water ([1]; hydrochloride) was “water-insoluble”, the “Antihyperpermeable effect (intradermal concentration of Evan's Blue induced by histamine, in words)” value ([4]; 10 mg/kg intraperitoneal) was “decrease greatly the intradermal concentration of Evan's Blue” and the “Decrease in the intradermal concentration of Evan's Blue” value ([4]; ip, 10 mg/kg) was 50%.

With `COC(=O)C1=C(C)NC(C)=C(C(=O)O[C@H]2CCCN(CCCC(=O)c3c(OC)cc(OC)cc3OC)C2)[C@@H]1c1cccc([N+](=O)[O-])c1` [Example 6, (+)(4R, 3'S) 2,6-dimethyl-4-(3-nitrophenyl)-5-methoxycarbonyl-1,4-dihydropyridine-3-carboxylic acid N-[3-(2,4,6-trimethoxybenzoyl)propyl]piperidine-3'-yl ester] the Solubility in water [1] was “water-insoluble”.

For `COC(=O)C1=C(C)NC(C)=C(C(=O)O[C@H]2CCCN(CCCC(=O)c3c(OC)cc(OC)cc3OC)C2)[C@H]1c1cccc([N+](=O)[O-])c1` (single isomer, unassigned) [Example 8, hydrochloride], the IC50 (DHP membranous site) was 4 nM, the Solubility in water [1] was “water-insoluble” and the inhibition at 0.004 µM (rat's isolated aorta; dose 4 × 10^-9 M (= receptor IC50)) was 40%.
